Experimental data reported in the supplement of paper PMC11061612.

Tests used:
Assay in all cases: Bliss excess, mean over the matrix (fraction); higher = more synergy
[1] = tested on: DOK (Oral Cavity Carcinoma)
In short: (§1)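 After 24 hours at 37°C and 5% CO2 in 1536-well plates, cells in DMEM/F12 or RPMI plus 10% FBS received two-drug dose matrices for 72 hours. Viability came from CellTiter-Glo 2.0 luminescence and was scaled as inhibition, anchored at 0 by vehicle wells and at 1 by blank wells. Combination Emax is taken as the second-highest inhibition in the matrix, and Bliss excess as the observed combination effect less EA + EB − EA·EB, with EA and EB the single-agent effects.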

[2] = tested on: Saos-2 (Osteosarcoma)
In short: as §1

[3] = tested on: YT (Other Blood Carcinomas)
In short: as §1

[4] = tested on: SW48 (Colorectal Carcinoma)
In short: as §1

[5] = tested on: HCT-116 (Colorectal Carcinoma)
In short: as §1

[6] = tested on: SK-LMS-1 (Other Solid Carcinomas)
In short: as §1

[7] = tested on: MEG-01 (Chronic Myelogenous Leukemia)
In short: as §1

[8] = tested on: SLVL (B-Cell Non-Hodgkin's Lymphoma)
In short: as §1

[9] = tested on: SK-UT-1 (Other Solid Carcinomas)
In short: as §1

[10] = tested on: MSTO-211H (Mesothelioma)
In short: as §1

[11] = tested on: CS1 (Chondrosarcoma)
In short: as §1

[12] = tested on: EW-22 (Ewing's Sarcoma)
In short: as §1

[13] = tested on: P31-FUJ (Acute Myeloid Leukemia)
In short: as §1

[14] = tested on: HCC38 (Breast Carcinoma)
In short: as §1

[15] = tested on: CAL-39 (Other Solid Carcinomas)
In short: as §1

[16] = tested on: SK-MEL-1 (Melanoma)
In short: as §1

[17] = tested on: D-392MG (Glioblastoma)
In short: as §1

[18] = tested on: SW948 (Colorectal Carcinoma)
In short: as §1

[19] = tested on: BICR78 (Oral Cavity Carcinoma)
In short: as §1

[20] = tested on: NOMO-1 (Acute Myeloid Leukemia)
In short: as §1

SMILES	Bliss excess [1]	Bliss excess [2]	Bliss excess [3]	Bliss excess [4]	Bliss excess [5]	Bliss excess [6]	Bliss excess [7]	Bliss excess [8]	Bliss excess [9]	Bliss excess [10]	Bliss excess [11]	Bliss excess [12]	Bliss excess [13]	Bliss excess [14]	Bliss excess [15]	Bliss excess [16]	Bliss excess [17]	Bliss excess [18]	Bliss excess [19]	Bliss excess [20]
N#Cc1cnc(Nc2cc(NC[C@H]3CNCCO3)c(C(F)(F)F)cn2)cn1 [SRA737] + C=CCn1c(=O)c2cnc(Nc3ccc(N4CCN(C)CC4)cc3)nc2n1-c1cccc(C(C)(C)O)n1 [AZD1775] (first compound max 10 µM, partner max 1 µM)	-0.0139	0.0939	0.0379	0.0468	0.0011	0.112	-0.0314	0.0581	0.0497	0.131	0.0399	0.0315	0.0411	0.0088	-0.0255	-0.0195	-0.0523	0.0054	-0.0326	0.0706
Cc1c2c(nn1C)CSCc1cc(n(C)n1)CSc1cc(c3ccccc3c1)OCCCc1c(C(=O)O)n(C)c3c-2c(Cl)ccc13 [AZD5991] + CS(=O)(=O)CCNCc1ccc(-c2ccc3ncnc(Nc4ccc(OCc5cccc(F)c5)c(Cl)c4)c3c2)o1 [Lapatinib] (first compound max 1 µM, 7x7, partner max 10 µM)	0.111	-0.0071	0.0331	0.0213	-0.0365	-0.0101	-0.0318	0.0502	0.032	0.0121	-0.0458	-0.0028	-0.0445	-0.0638	0.0372	0.026	-0.0727	-0.0171	-0.0065	-0.0873
O=C(c1cc(Cc2n[nH]c(=O)c3ccccc23)ccc1F)N1CCN(C(=O)C2CC2)CC1 [Olaparib] + Cc1c2c(nn1C)CSCc1cc(n(C)n1)CSc1cc(c3ccccc3c1)OCCCc1c(C(=O)O)n(C)c3c-2c(Cl)ccc13 [AZD5991] (first compound max 10 µM, 7x7, partner max 1 µM)	-0.0192	-0.0087	0.0191	-0.0253	-0.0086	-0.0076	-0.0416	-0.0034	-0.0141	-0.029	-0.0483	-0.016	-0.0125	-0.0457	-0.0409	-0.0301	-0.0661	-0.0449	-0.0643	-0.0167
C[C@@H]1COCCN1c1cc(C2([S@](C)(=N)=O)CC2)nc(-c2ccnc3[nH]ccc23)n1 [AZD6738] + Nc1ccn([C@@H]2O[C@H](CO)[C@@H](O)C2(F)F)c(=O)n1 [Gemcitabine] (first compound max 10 µM, 7x7, partner max 0.3 µM)	0.0785	0.0312	0.124	-0.0329	0.0252	0.0139	-0.0258	-0.0284	0.0317	0.0098	0.075	0.0068	0.0545	0.0715	0.0523	0.0174	-0.0224	0.0448	0.0298	0.058
Cc1cc2ncnn2cc1Nc1ncc2c(n1)n(C1CCOCC1)c(=O)n2C [AZD7648] + COc1cc([C@@H]2c3cc4c(cc3[C@@H](O[C@@H]3O[C@@H]5CO[C@@H](C)O[C@H]5[C@H](O)[C@H]3O)[C@H]3COC(=O)[C@H]23)OCO4)cc(OC)c1O [Etoposide] (first compound max 10 µM, 7x7, partner max 10 µM)	0.109	0.054	0.0495	0.0487	0.13	0.172	0.102	0.0824	0.117	0.0624	0.017	0.112	0.101	0.0373	0.0364	0.0651	0.0658	-0.0456	0.0789	0.113
C=CCn1c(=O)c2cnc(Nc3ccc(N4CCN(C)CC4)cc3)nc2n1-c1cccc(C(C)(C)O)n1 [AZD1775] + Nc1ccn([C@@H]2O[C@H](CO)[C@@H](O)C2(F)F)c(=O)n1 [Gemcitabine] (first compound max 1 µM, partner max 0.3 µM)	-0.0216	-0.0728	0.0337	0.0828	-0.0342	-0.027	-0.0001	-0.0357	-0.0194	0.0226	-0.0007	-0.0431	0.0797	0.0214	0.0328	-0.0469	0.013	0.104	0.0412	0.0485
CN(CCO)CC[C@H](CSc1ccccc1)Nc1ccc(S(=O)(=O)NC(=O)c2ccc(N3CCC([C@@H](O)c4ccccc4-c4ccc(Cl)cc4)CC3)cc2)cc1S(=O)(=O)C(F)(F)F [AZD4320] + Nc1ccn([C@@H]2O[C@H](CO)[C@@H](O)C2(F)F)c(=O)n1 [Gemcitabine] (first compound max 1 µM, 7x7, partner max 0.3 µM)	0.0797	0.121	-0.0591	0.0089	0.0111	0.0273	0.0059	-0.0135	0.0159	0.0099	0.0187	0.0287	-0.0492	-0.0171	0.0174	-0.0689	0.0921	0.0114	-0.0581	0.0208
C[C@@H](Nc1cc(F)cc(F)c1)c1cc(C(=O)N(C)C)cc2c(=O)cc(N3CCOCC3)oc12 [AZD8186] + CC(=O)c1c(C)c2cnc(Nc3ccc(N4CCNCC4)cn3)nc2n(C2CCCC2)c1=O [Palbociclib] (first compound max 10 µM, 7x7, partner max 10 µM)	0.0079	-0.0181	0.0407	0.0715	0.0488	0.147	-0.0585	0.0035	0.008	0.135	0.0326	0.05	-0.0164	-0.0466	0.125	0.0098	-0.0827	-0.0457	-0.0525	0.0983
Cc1c2c(nn1C)CSCc1cc(n(C)n1)CSc1cc(c3ccccc3c1)OCCCc1c(C(=O)O)n(C)c3c-2c(Cl)ccc13 [AZD5991] + Nc1ccn([C@@H]2O[C@H](CO)[C@@H](O)C2(F)F)c(=O)n1 [Gemcitabine] (first compound max 1 µM, 7x7, partner max 0.3 µM)	-0.0008	0.0374	0.0413	-0.0377	-0.0854	-0.009	-0.0412	-0.014	-0.0367	-0.0131	-0.0411	-0.0071	0.0115	-0.0432	0.0269	-0.0226	-0.112	0.0016	-0.0851	-0.0065
CN(CCO)CC[C@H](CSc1ccccc1)Nc1ccc(S(=O)(=O)NC(=O)c2ccc(N3CCC([C@@H](O)c4ccccc4-c4ccc(Cl)cc4)CC3)cc2)cc1S(=O)(=O)C(F)(F)F [AZD4320] + CC(=O)O[C@H]1C(=O)[C@@]2(C)[C@H]([C@H](OC(=O)c3ccccc3)[C@]3(O)C[C@H](OC(=O)[C@H](O)[C@@H](NC(=O)c4ccccc4)c4ccccc4)C(C)=C1C3(C)C)[C@]1(OC(C)=O)CO[C@@H]1C[C@@H]2O [Paclitaxel] (first compound max 1 µM, 7x7, partner max 3 µM)	0.0565	0.0937	-0.0079	-0.003	0.0182	0.0954	-0.0006	0.032	-0.0007	0.105	0.041	0.0397	-0.0004	0.0324	0.0298	0.0354	0.129	-0.0074	0.0354	-0.0101
O=C(c1cc(Cc2n[nH]c(=O)c3ccccc23)ccc1F)N1CCN(C(=O)C2CC2)CC1 [Olaparib] + COc1nnc2ccc(N3CCC(c4ccc(OCCN5CCN(C)C(=O)[C@H]5C)cc4)CC3)nn12 [AZD5153] (first compound max 10 µM, 7x7, partner max 1 µM)	-0.0404	-0.02	-0.107	-0.071	-0.0206	-0.0329	-0.0579	0.0142	-0.02	-0.0085	-0.0718	0.0369	-0.0621	-0.0793	-0.0634	-0.0316	-0.0759	-0.0441	-0.0458	-0.0589
C[C@@H](Oc1cc(-c2cnn(C3CCNCC3)c2)cnc1N)c1c(Cl)ccc(F)c1Cl [Crizotinib] + CC1=C(C(=CC=C1)Cl)NC(=O)C2=CN=C(S2)NC3=CC(=NC(=N3)C)N4CCN(CC4)CCO [Dasatinib] (first compound max 10 µM, 7x7, partner max 2 µM)	-0.0008	0.0807	0.0714	-0.0118	0.0243	0.153	0.0253	0.0167	0.0539	0.0718	0.112	-0.0466	-0.0311	0.0255	0.027	-0.0554	0.0503	-0.0118	0.0142	-0.025
O=C(c1cc(Cc2n[nH]c(=O)c3ccccc23)ccc1F)N1CCN(C(=O)C2CC2)CC1 [Olaparib] + CN(CC[C@H](CSC1=CC=CC=C1)NC2=C(C=C(C=C2)S(=O)(=O)NC(=O)C3=CC=C(C=C3)N4CCC(CC4)[C@H](C5=CC=CC=C5C6=CC=C(C=C6)Cl)O)S(=O)(=O)C(F)(F)F)CCO [AZD4320] (first compound max 10 µM, 7x7, partner max 1 µM)	-0.101	-0.0312	-0.0505	-0.0239	-0.0103	-0.0169	-0.009	0.0356	0.0299	-0.0173	-0.0342	0.0385	-0.131	-0.0541	-0.0242	-0.0299	-0.0317	-0.0165	-0.0656	0.034
N#Cc1cnc(Nc2cc(NC[C@H]3CNCCO3)c(C(F)(F)F)cn2)cn1 [SRA737] + CCc1c2c(nc3ccc(O)cc13)-c1cc3c(c(=O)n1C2)COC(=O)[C@]3(O)CC [SN-38] (first compound max 10 µM, 7x7, partner max 0.3 µM)	-0.0531	-0.0303	-0.0677	-0.0411	-0.0306	-0.0248	0.0468	-0.0909	-0.0033	-0.024	-0.0579	-0.0592	-0.0541	-0.049	-0.0157	–	-0.0555	0.154	-0.0015	-0.039
